Test [1] has as its system KRas G12D-mediated Phosphorylation of ERK. In words: Inhibition of KRas G12D-mediated Phosphorylation of ERK in AGS cells. The class given is cell-based. The following applies: Homo sapiens; AGS cells expressing G12D, 3 hours, phospho-ERK signal normalized to GAPDH; read-out: IC50. The method, then: AGS cells (ATCC CRL-1739) expressing G12D were grown in DMEM medium supplemented with 10% fetal bovine serum, 10 mM HEPES, and Penicillin/Streptomycin. Cells were plated in tissue culture treated 96 well plates at a density of 40,000 cells/well and allowed to attach for 12-14 hours. Diluted compounds were then added in a final concentration of 0.5% DMSO. After 3 hours, the medium was removed, 150 μl of 4.0% formaldehyde was added and the plates incubated at room temperature for 20 minutes. The plates were washed with PBS, and permeabilized with 150 μL of ice cold 100% methanol for 10 minutes. Non-specific antibody binding to the plates was blocked using 100 μL Licor blocking buffer (Li-Cor Biotechnology, Lincoln NE) for 1 hour at room temperature.
The amount of phospho-ERK was determined using an antibody specific for the phosphorylated form of ERK and compared to the amount of GAPDH. Primary antibodies used for the detection were added as follows: Phospho-ERK(Cell Signaling cs-9101) diluted 1:500 and GAPDH (Millipore MAB374) diluted 1:5000 in Licor block+0.05% Tween 20. The plates were incubated for 2 hours at room temperature. The plates were washed with PBS+0.05% Tween 20.
Secondary antibodies used to visualize primary antibodies were added as follows: Anti-rabbit-680 diluted 1:1000 and Anti-mouse-800 diluted 1:1000 both in Licor block+0.05% Tween20, and were incubated for 1 hour at room temperature. The plates were washed with PBS+0.05% Tween 20. A 100 μl aliquot of PBS was added to each well and the plates were read on a Li-Cor Odyssey CLX plate reader.
The phospho-ERK(Thr202/Tyr204 signal was normalized to the GAPDH signal for each well and percent of DMSO control values were calculated. IC50 values were generated using a 4-parameter fit of the dose response curve

In a further test the target is KRas G12D (Homo sapiens, UniProt P01116, G12D). Briefly: KRas G12D Binding Assay (TR-FRET displacement of labeled tracer). Also on record: corresponding to amino acids 1:169, produced at Array BioPharma Inc; biotin (biotinylated). The settings on record: TR-FRET displacement of Cy5 labelled tracer, Biotinylated GDP-loaded KRAS G12D (amino acids 1:169), 60 minute incubation at 22° C. The method, then: This Example illustrates that exemplary compounds of the present invention bind to KRas G12D and are capable of displacing a labeled tracer ligand occupying the KRas G12D binding site. The ability of a compound to bind to KRAS G12D was measured using a TR-FRET displacement assay. Biotinylated GDP-loaded recombinant human KRAS G12D (corresponding to amino acids 1:169, produced at Array BioPharma Inc.) was incubated with a custom-made Cy5 labelled tracer, europium labelled streptavidin and compound (2% DMSO final) in buffer (50 mM HEPES [pH 7.5], 5 mM MgCl2, 0.005% Tween-20 & 1 mM DTT). After a 60 minute incubation at 22° C., the reaction was measured using a PerkinElmer EnVision multimode plate reader via TR-FRET dual wavelength detection, and the percent of control (POC) calculated using a ratiometric emission factor. […] The POC values were fit to a 4-parameter logistic curve and the IC50 value was determined as the concentration where the curve crosses 50 POC.
Chain of KRas G12D (P01116 1-169 isoform P01116-2 G12D): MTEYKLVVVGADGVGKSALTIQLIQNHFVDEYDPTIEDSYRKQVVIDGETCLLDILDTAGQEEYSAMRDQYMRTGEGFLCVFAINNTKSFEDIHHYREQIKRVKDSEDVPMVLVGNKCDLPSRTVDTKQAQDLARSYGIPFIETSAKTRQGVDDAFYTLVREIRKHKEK

Take `CCc1cccc2cc(O)cc(-c3ncc4c(NCC5(N(C)C)CCC5)nc(OC[C@@]56CCCN5[C@H](COC(=O)NC)CC6)nc4c3F)c12` (racemic) [Example 44]: the IC50 is 220 nM in test [1] and 0.7 nM on KRas G12D. The like results for `CN(C)C1(CNc2nc(OC[C@]34CCCN3[C@@H](COC(=O)N3CCCCC3)CC4)nc3c(F)c(-c4cccc5cccc(Cl)c45)ncc23)CCC1` [Example 50, ((3R,7aR)-7a-(((7-(8-chloronaphthalen-1-yl)-4-(((1-(dimethylamino)cyclobutyl)methyl)amino)-8-fluoropyrido[4,3-d]pyrimidin-2-yl)oxy)methyl)hexahydro-1H-pyrrolizin-3-yl)methyl piperidine-1-carboxylate] were, in that order, 10700 nM and 89.6 nM. The like results for `CN(C)C1(CNc2nc(OCC34CCCN3CCC4)nc3c(F)c(-c4cccc5cccc(Cl)c45)ncc23)CCC1` [Example 54, 7-(8-chloronaphthalen-1-yl)-N-((1-(dimethylamino)cyclobutyl)methyl)-8-fluoro-2-((tetrahydro-1H-pyrrolizin-7a(5H)-yl)methoxy)pyrido[4,3-d]pyrimidin-4-amine] were, in that order, over 16700 nM and 79.3 nM.

With `C#Cc1c(F)ccc2cc(O)cc(-c3ncc4c(NCC5(N(C)C)CCC5)nc(OC[C@]56CCCN5[C@@H](COC(=O)N(C)C)CC6)nc4c3F)c12` [Example 45, ((3R,7aR)-7a-(((4-(((1-(dimethylamino)cyclobutyl)methyl)amino)-7-(8-ethynyl-7-fluoro-3-hydroxynaphthalen-1-yl)-8-fluoropyrido[4,3-d]pyrimidin-2-yl)oxy)methyl)hexahydro-1H-pyrrolizin-3-yl)methyl dimethylcarbamate], the 50% inhibitory concentration (IC50) in test [1] was found to be 38.3 nM; on KRas G12D, 0.4 nM.

On to `CN(C)C1(CNc2nc(OC[C@]34CCCN3[C@@H](COC(=O)N3CCCC3)CC4)nc3c(F)c(-c4cccc5cccc(Cl)c45)ncc23)CCC1` [Example 49, ((3R,7aR)-7a-(((7-(8-chloronaphthalen-1-yl)-4-(((1-(dimethylamino)cyclobutyl)methyl)amino)-8-fluoropyrido[4,3-d]pyrimidin-2-yl)oxy)methyl)hexahydro-1H-pyrrolizin-3-yl)methyl pyrrolidine-1-carboxylate], for which the half-inhibitory concentration (IC50) on KRas G12D stood at 232 nM. As to `Cc1cccc2cccc(-c3ncc4c(NCC5(N(C)C)CCC5)nc(OC[C@@]56CCCN5C[C@H](F)C6)nc4c3F)c12` [Example 2, N-((1-(dimethylamino)cyclobutyl)methyl)-8-fluoro-2-(((2R,7aS)-2-fluorotetrahydro-1H-pyrrolizin-7a(5H)-yl)methoxy)-7-(8-methylnaphthalen-1-yl)pyrido[4,3-d]pyrimidin-4-amine bis(2,2,2-trifluoroacetate)], the IC50 at KRas G12D was 269 nM. Still for that read-out and setting: then `CN(C)C(C)(C)CNc1nc(OCC23CCCN2CCC3)nc2c(F)c(-c3cccc4cccc(Cl)c34)ncc12` [Example 55, N^1-(7-(8-chloronaphthalen-1-yl)-8-fluoro-2-((hexahydro-1H-pyrrolizin-7a-yl)methoxy)pyrido[4,3-d]pyrimidin-4-yl)-N^2,N^2,2-trimethylpropane-1,2-diamine], with 938 nM; and `CC(C)c1ccccc1-c1ncc2c(NCC3(N(C)C)CCC3)nc(OC[C@@]34CCCN3C[C@H](F)C4)nc2c1F` [Example 10, N-((1-(dimethylamino)cyclobutyl)methyl)-8-fluoro-2-(((2R,7aS)-2-fluorotetrahydro-1H-pyrrolizin-7a(5H)-yl)methoxy)-7-(2-isopropylphenyl)pyrido[4,3-d]pyrimidin-4-amine bis(2,2,2-trifluoroacetate)], with 3720 nM; and `CN(C)C1(CNc2nc(OC[C@@]34CCCN3C[C@H](F)C4)nc3c(F)c(-c4cc(O)cc5ccccc45)ncc23)CCOCC1` [Example 41, 4-(4-(((4-(dimethylamino)tetrahydro-2H-pyran-4-yl)methyl)amino)-8-fluoro-2-(((2R,7aS)-2-fluorotetrahydro-1H-pyrrolizin-7a(5H)-yl)methoxy)pyrido[4,3-d]pyrimidin-7-yl)naphthalen-2-ol bis(2,2,2-trifluoroacetate)], with 684 nM. On KRas G12D, `Oc1cc(-c2ncc3c(NCC4(N5CCOCC5)CCC4)nc(OC[C@@]45CCCN4C[C@H](F)C5)nc3c2F)c2ccccc2c1` [Example 4, 4-(8-fluoro-2-(((2R,7aS)-2-fluorotetrahydro-1H-pyrrolizin-7a(5H)-yl)methoxy)-4-(((1-morpholinocyclobutyl)methyl)amino)pyrido[4,3-d]pyrimidin-7-yl)naphthalen-2-ol] displayed an IC50 of 958 nM. Same read-out and setting: the result for `CN(CC1(N(C)C)CCC1)c1nc(OCC23CCCN2CCC3)nc2c(F)c(-c3cccc4cccc(F)c34)ncc12` [Example 58, N-((1-(dimethylamino)cyclobutyl)methyl)-8-fluoro-7-(8-fluoronaphthalen-1-yl)-2-((hexahydro-1H-pyrrolizin-7a-yl)methoxy)-N-methylpyrido[4,3-d]pyrimidin-4-amine] reads 9090 nM; that for `NC1CC(Nc2nc(OCC34CCCN3CCC4)nc3c(F)c(-c4cccc5cccc(F)c45)ncc23)C12CCC2` (centres unmarked) [Example 62, N^1-(8-fluoro-7-(8-fluoronaphthalen-1-yl)-2-((hexahydro-1H-pyrrolizin-7a-yl)methoxy)pyrido[4,3-d]pyrimidin-4-yl)spiro[3.3]heptane-1,3-diamine], 203 nM. On the same count and under the same terms, the result for `C[C@H]1CNC[C@@H]1Nc1nc(OCC23CCCN2CCC3)nc2c(F)c(-c3cc(O)cc4ccccc34)ncc12` [Example 19, 4-(8-fluoro-4-(((3R,4S)-4-methylpyrrolidin-3-yl)amino)-2-((tetrahydro-1H-pyrrolizin-7a(5H)-yl)methoxy)pyrido[4,3-d]pyrimidin-7-yl)naphthalen-2-ol] reads 245 nM.

`NC1(CNc2nc(OCC34CCCN3CCC4)nc3c(F)c(-c4cccc5cccc(F)c45)ncc23)CCC1` [Example 60, N-((1-aminocyclobutyl)methyl)-8-fluoro-7-(8-fluoronaphthalen-1-yl)-2-((hexahydro-1H-pyrrolizin-7a-yl)methoxy)pyrido[4,3-d]pyrimidin-4-amine] registered an IC50 at KRas G12D of 2120 nM. On KRas G12D, `CN(C)C1(CNc2nc(OCC34CCCN3C[C@H](F)C4)nc3c(F)c(-c4cccc5cccc(C6CC6)c45)ncc23)CCC1` (mixture of isomers) [Example 26, 7-(8-cyclopropylnaphthalen-1-yl)-N-((1-(dimethylamino)cyclobutyl)methyl)-8-fluoro-2-(((2S,7aR)-2-fluorotetrahydro-1H-pyrrolizin-7a(5H)-yl)methoxy)pyrido[4,3-d]pyrimidin-4-amine] came in with a half-maximal inhibitory concentration (IC50) of 344 nM. The same measure, in the same setting: the result for `CCc1c(F)ccc2cc(O)cc(-c3ncc4c(NCC5(N(C)C)CCC5)nc(OC[C@@]56CCCN5C[C@H](F)C6)nc4c3F)c12` [Example 57, 4-(4-(((1-(dimethylamino)cyclobutyl)methyl)amino)-8-fluoro-2-(((2R,7aS)-2-fluorohexahydro-1H-pyrrolizin-7a-yl)methoxy)pyrido[4,3-d]pyrimidin-7-yl)-5-ethyl-6-fluoronaphthalen-2-ol] reads 1.1 nM.

For the origin of these results see patent US12655160B2, “KRAS G12D inhibitors” (Mirati Therapeutics, Inc., priority 2020, dated 2026).
